Consider seven compounds from patent EP4722207A1, “OXOISOINDOLINYL-SUBSTITUTED TETRAHYDROPYRIMIDINEDIONE DERIVATIVE AND USE THEREOF” (Gluetacs Therapeutics (Shanghai) Co., Ltd., priority 2023, dated 2024).

As a reminder, the inhibition is the share of the control response that was lost under treatment.

One assay addresses T1, WEE1 (Homo sapiens, UniProt P30291+Q96SW2).
T1 construct: effects of the compounds of the present disclosure on the expression of target proteins in cells; endogenous in cells; host or cells: human PBMCs (hPBMCs)
As to the kind of experiment: Western-blot assay, substrate protein degradation in hPBMCs: WEE1. The assay is classed as cell-based. The settings on record: 24 hours of compound treatment, 50 nM and 500 nM.

The target of the next assay is T2, IKZF1 (Homo sapiens, UniProt Q13422+Q96SW2).
T2 construct: effects of the compounds of the present disclosure on the expression of target proteins in cells; endogenous in cells; host or cells: human PBMCs (hPBMCs)
T2 sequence (Q13422 whole entry): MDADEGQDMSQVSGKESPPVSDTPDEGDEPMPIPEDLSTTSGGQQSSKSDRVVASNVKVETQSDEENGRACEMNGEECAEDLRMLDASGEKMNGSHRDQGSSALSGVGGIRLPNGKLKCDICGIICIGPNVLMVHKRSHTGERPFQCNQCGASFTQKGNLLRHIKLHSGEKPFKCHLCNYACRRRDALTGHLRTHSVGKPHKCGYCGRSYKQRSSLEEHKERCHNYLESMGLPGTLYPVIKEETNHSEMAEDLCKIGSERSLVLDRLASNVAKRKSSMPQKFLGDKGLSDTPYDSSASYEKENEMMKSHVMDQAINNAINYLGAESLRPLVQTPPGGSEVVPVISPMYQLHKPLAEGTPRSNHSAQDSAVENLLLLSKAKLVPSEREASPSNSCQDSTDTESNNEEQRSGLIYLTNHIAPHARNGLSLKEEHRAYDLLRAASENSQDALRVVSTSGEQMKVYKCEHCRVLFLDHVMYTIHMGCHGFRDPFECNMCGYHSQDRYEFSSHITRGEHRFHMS
T2 sequence (Q96SW2 whole entry): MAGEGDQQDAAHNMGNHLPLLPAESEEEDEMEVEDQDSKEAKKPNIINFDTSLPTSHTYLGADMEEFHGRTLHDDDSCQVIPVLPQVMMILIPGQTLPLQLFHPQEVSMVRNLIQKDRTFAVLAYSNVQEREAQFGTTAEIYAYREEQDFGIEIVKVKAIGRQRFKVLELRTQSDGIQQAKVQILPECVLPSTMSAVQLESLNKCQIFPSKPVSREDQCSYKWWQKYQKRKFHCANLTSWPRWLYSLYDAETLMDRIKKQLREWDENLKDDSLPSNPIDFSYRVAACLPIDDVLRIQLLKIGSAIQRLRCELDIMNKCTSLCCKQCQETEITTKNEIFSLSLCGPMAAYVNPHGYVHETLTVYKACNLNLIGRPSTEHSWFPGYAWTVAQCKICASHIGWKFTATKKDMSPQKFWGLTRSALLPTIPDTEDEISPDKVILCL
T2 sequence (Q16531 whole entry partner): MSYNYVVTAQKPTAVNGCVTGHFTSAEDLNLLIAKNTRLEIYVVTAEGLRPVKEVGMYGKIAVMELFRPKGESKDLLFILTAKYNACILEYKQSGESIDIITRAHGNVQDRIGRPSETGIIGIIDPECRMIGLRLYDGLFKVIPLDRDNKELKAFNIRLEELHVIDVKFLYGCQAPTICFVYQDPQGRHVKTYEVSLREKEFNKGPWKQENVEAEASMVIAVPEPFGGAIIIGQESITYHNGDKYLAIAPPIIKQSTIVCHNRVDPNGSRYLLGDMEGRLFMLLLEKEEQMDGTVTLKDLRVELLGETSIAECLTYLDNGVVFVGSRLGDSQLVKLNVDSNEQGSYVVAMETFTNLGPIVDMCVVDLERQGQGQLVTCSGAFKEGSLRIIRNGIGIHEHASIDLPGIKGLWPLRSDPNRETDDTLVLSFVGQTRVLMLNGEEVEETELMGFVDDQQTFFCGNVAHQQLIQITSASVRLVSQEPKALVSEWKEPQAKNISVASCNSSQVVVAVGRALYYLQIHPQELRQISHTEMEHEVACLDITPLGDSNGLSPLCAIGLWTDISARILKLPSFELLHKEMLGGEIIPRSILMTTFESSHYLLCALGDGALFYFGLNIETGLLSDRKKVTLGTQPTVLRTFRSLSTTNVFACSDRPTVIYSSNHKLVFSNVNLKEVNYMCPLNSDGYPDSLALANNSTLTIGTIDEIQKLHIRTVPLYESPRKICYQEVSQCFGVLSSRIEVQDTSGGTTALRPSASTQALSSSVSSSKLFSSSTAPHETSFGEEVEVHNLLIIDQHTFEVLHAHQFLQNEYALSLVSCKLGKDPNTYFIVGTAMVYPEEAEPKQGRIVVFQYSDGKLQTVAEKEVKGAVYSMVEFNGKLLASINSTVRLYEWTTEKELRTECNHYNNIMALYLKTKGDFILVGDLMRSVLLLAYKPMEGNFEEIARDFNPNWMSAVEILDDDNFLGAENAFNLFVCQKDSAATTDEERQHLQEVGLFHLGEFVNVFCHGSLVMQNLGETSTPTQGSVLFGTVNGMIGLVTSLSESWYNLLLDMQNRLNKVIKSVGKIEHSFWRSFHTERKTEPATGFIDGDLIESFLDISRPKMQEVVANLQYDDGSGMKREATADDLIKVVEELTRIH
As to the kind of experiment: Western-blot assay, substrate protein degradation in hPBMCs: IKZF1. The assay is classed as cell-based. The settings on record: 24 hours of compound treatment, 50 nM and 500 nM.

Another assay has as its target T3, IKZF2 (Homo sapiens, UniProt Q96SW2+Q9UKS7).
T3 construct: effects of the compounds of the present disclosure on the expression of target proteins in cells; endogenous in cells; host or cells: human PBMCs (hPBMCs)
Kind of assay: Western-blot assay, substrate protein degradation in hPBMCs: IKZF2. The settings on record: 24 hours of compound treatment, 50 nM and 500 nM. The assay is classed as cell-based.

The next assay concerns the target T4, IKZF3 (Homo sapiens, UniProt Q96SW2+Q9UKT9).
T4 construct: effects of the compounds of the present disclosure on the expression of target proteins in cells; endogenous in cells; host or cells: human PBMCs (hPBMCs)
Kind of assay: Western-blot assay, substrate protein degradation in hPBMCs: IKZF3. The assay is classed as cell-based. The settings on record: 24 hours of compound treatment, 50 nM and 500 nM.

The target of another assay is T5, CK1α (Homo sapiens, UniProt P48729+Q96SW2).
T5 construct: effects of the compounds of the present disclosure on the expression of target proteins in cells; endogenous in cells; host or cells: human PBMCs (hPBMCs)
T5 sequence (P48729 whole entry): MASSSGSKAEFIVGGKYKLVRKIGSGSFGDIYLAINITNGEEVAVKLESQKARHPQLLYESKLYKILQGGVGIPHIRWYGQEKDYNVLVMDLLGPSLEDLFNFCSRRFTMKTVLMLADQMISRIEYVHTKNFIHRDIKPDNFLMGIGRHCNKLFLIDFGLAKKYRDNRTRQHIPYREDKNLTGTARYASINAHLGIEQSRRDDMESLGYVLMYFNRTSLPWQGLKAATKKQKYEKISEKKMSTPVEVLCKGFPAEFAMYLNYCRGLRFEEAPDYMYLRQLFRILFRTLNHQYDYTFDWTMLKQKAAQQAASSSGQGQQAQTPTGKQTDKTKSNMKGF
T5 sequence (Q96SW2 whole entry): as the sequence (Q96SW2 whole entry) above
T5 sequence (Q16531 whole entry partner): as the sequence (Q16531 whole entry partner) above
As to the kind of experiment: Western-blot assay, substrate protein degradation in hPBMCs: CK1α. The assay is classed as cell-based. The settings on record: 24 hours of compound treatment, 50 nM and 500 nM.

A further assay addresses T6, GSPT1 (Homo sapiens, UniProt P15170+Q96SW2).
T6 construct: effects of the compounds of the present disclosure on the expression of target proteins in cells; endogenous in cells; host or cells: human PBMCs (hPBMCs)
Kind of assay: Western-blot assay, substrate protein degradation in hPBMCs: GSPT1. The assay is classed as cell-based. The settings on record: 24 hours of compound treatment, 50 nM and 500 nM.

The test system of the next assay is H292. Kind of assay: Cell viability assay (CellTiter-Meiluncell Luminescent), tumor cell proliferation, H292. The settings on record: Homo sapiens, NCI-H292, 96 h; for inhibition at 0.01 µM: read-out: Inhibition Rate at 10 nM (%); for inhibition at 0.5 µM: read-out: Inhibition Rate at 500 nM (%).
A further assay concerns H2228. Kind of assay: Cell viability assay (CellTiter-Meiluncell Luminescent), tumor cell proliferation, H2228. The settings on record: Homo sapiens, NCI-H2228, 96 h; for inhibition at 0.01 µM: read-out: Inhibition Rate at 10 nM (%); for inhibition at 0.5 µM: read-out: Inhibition Rate at 500 nM (%).
The test system of another assay is MDA-MB-231. As to the kind of experiment: Cell viability assay (CellTiter-Meiluncell Luminescent), tumor cell proliferation, MDA-MB-231. The settings on record: Homo sapiens, MDA-MB-231, 96 h; for inhibition at 0.01 µM: read-out: Inhibition Rate at 10 nM (%); for inhibition at 0.5 µM: read-out: Inhibition Rate at 500 nM (%).
A further assay concerns MV-4-11. Kind of assay: Cell viability assay (CellTiter-Meiluncell Luminescent), tumor cell proliferation, MV-4-11. The settings on record: Homo sapiens, MV4-11, 96 h.

T6 sequence (P15170 whole entry): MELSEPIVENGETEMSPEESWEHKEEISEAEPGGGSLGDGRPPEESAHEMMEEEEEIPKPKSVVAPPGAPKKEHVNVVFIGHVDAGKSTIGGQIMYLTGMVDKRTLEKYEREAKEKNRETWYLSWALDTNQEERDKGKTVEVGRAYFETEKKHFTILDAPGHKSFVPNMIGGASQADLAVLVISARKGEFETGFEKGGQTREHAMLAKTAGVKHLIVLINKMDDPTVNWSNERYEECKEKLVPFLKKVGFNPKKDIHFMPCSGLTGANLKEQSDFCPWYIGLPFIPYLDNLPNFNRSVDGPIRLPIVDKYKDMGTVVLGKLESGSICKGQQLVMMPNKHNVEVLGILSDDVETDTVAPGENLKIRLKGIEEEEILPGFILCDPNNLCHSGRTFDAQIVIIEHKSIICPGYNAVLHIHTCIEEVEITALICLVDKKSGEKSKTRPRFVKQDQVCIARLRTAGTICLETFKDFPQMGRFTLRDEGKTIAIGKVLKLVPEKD
T6 sequence (Q96SW2 whole entry): as the sequence (Q96SW2 whole entry) above
T6 sequence (Q16531 whole entry partner): as the sequence (Q16531 whole entry partner) above
T3 sequence (Q9UKS7 whole entry): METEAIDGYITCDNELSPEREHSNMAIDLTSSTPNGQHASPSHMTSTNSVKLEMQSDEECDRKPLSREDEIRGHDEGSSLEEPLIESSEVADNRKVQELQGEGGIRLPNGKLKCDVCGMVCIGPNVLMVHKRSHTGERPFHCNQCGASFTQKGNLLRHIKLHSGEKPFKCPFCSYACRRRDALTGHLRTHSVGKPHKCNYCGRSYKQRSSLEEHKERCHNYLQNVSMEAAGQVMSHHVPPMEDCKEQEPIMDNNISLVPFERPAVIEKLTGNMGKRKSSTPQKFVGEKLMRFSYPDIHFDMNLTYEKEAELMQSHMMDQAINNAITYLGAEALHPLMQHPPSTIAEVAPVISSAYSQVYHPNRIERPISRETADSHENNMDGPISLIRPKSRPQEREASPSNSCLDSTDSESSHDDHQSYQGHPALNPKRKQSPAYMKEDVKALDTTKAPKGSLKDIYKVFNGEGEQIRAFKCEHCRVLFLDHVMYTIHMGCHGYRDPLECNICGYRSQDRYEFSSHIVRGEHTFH
T3 sequence (Q96SW2 whole entry): as the sequence (Q96SW2 whole entry) above
T3 sequence (Q16531 whole entry partner): as the sequence (Q16531 whole entry partner) above
T4 sequence (Q9UKT9 whole entry): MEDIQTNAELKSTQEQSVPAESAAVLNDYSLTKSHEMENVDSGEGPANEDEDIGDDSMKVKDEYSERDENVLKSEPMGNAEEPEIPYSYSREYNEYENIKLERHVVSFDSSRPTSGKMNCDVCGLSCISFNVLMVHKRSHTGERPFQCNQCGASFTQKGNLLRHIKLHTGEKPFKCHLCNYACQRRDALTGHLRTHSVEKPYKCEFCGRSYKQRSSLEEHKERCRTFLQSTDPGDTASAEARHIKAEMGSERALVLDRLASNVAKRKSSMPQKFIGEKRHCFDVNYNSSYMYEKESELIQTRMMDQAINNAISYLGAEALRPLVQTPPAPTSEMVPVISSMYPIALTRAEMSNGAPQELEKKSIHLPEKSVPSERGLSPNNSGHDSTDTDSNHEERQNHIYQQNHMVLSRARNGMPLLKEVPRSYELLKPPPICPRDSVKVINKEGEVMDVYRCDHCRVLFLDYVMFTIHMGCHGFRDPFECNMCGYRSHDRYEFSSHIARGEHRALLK
T4 sequence (Q96SW2 whole entry): as the sequence (Q96SW2 whole entry) above
T4 sequence (Q16531 whole entry partner): as the sequence (Q16531 whole entry partner) above
Protocol for MDA-MB-231: The tumor cells used herein were cultured in a cell culture medium listed in table 2 at 37°C in an incubator with 5% CO2. Prior to experimentation, all cell lines used were correctly identified by STR profiling, and tested negative for mycoplasma contamination using a mycoplasma detection kit through routine screenings.
On the following day, the test compounds of the present disclosure were subjected to serial dilution. […] Subsequently, 0.5 µL of the test compound dilution was transferred into the 96-well plate containing the cells, with each well containing 100 µL of cell culture medium. […] Into the 96-well plate, the diluted test compounds and corresponding detection reagents were added, resulting in final test compound concentrations of 500 nM and 10 nM, respectively. The experimental procedure is described below using the diluted 2 µM test compound as an example.
After the cells were treated with the compounds of the present disclosure for a specified period, the cell viability assay reagent was added to the culture medium according to the kit's instructions to determine cell viability. […] All controls were treated using the same procedure as the compounds of the present disclosure. The growth inhibition curves for the compounds of the present disclosure were plotted using Prism GraphPad software, and the IC50 values were calculated therefrom.

On to `Cc1nc(C2CCN(Cc3ccc4c(c3)CN(N3CCC(=O)NC3=O)C4=O)CC2)c2c3c(sc2n1)CCCC3` [GT-08089, 1-(5-((4-(2-methyl-5,6,7,8-tetrahydrobenzo[4,5]thieno[2,3-d]pyrimidin-4-yl)piperidin-1-yl)methyl)-1-oxoisoindolin-2-yl)dihydropyrimidine-2,4(1H,3H)-dione], for which the “substrate protein remaining % WEE1” value on WEE1 is recorded as “A (0% ≤ substrate protein remaining % ≤ 80%)”. In addition, on IKZF1, the “substrate protein remaining % IKZF1” value is “B (80%< substrate protein remaining %≤ 100%)”. In addition, the “substrate protein remaining % IKZF2” value at IKZF2 is “B (80%< substrate protein remaining %≤ 100%)”. Besides, at IKZF3, the “substrate protein remaining % IKZF3” value is recorded as “B (80%< substrate protein remaining %≤ 100%)”. On CK1α, the “substrate protein remaining % CK1α” value was “A (0% ≤ substrate protein remaining % ≤ 80%)”. For the same compound, on GSPT1, the “substrate protein remaining % GSPT1” value is reported as “A (0% ≤ substrate protein remaining % ≤ 80%)”. Besides, the inhibition at 0.01 µM is 20 to 40% with H292, 20 to 25% with H2228 and 18 to 25% in the assay on MDA-MB-231. Also, the inhibition at 0.5 µM in the assay on H292 was 20 to 40%; with H2228, 20 to 25%; in the assay with MDA-MB-231, 25 to 40%.

For the compound `Cc1csc2ncnc(N3CCN(Cc4ccc5c(c4)C(=O)N(N4CCC(=O)NC4=O)C5=O)CC3)c12` [GT-08091, 2-(2,4-dioxotetrahydropyrimidin-1(2H)-yl)-5-((4-(5-methylthieno[2,3-d]pyrimidin-4-yl)piperazin-1-yl)methyl)isoindoline-1,3-dione], the “substrate protein remaining % WEE1” value on WEE1 is “A (0% ≤ substrate protein remaining % ≤ 80%)”. Also, the “substrate protein remaining % IKZF1” value on IKZF1 is listed as “B (80%< substrate protein remaining %≤ 100%)”. On IKZF2, the “substrate protein remaining % IKZF2” value is “B (80%< substrate protein remaining %≤ 100%)”. Also, the “substrate protein remaining % IKZF3” value at IKZF3 is on record as “B (80%< substrate protein remaining %≤ 100%)”. The “substrate protein remaining % CK1α” value at CK1α is “A (0% ≤ substrate protein remaining % ≤ 80%)”. Besides, the “substrate protein remaining % GSPT1” value on GSPT1 is given as “A (0% ≤ substrate protein remaining % ≤ 80%)”. The inhibition at 0.01 µM lay in the range of 20 to 40% in the assay with H292, 20 to 25% in the assay on H2228 and 15 to 18% in the assay with MDA-MB-231. Moreover, the inhibition at 0.5 µM with H292 lay within 20 to 40%; with H2228 it was 20 to 25%; in the assay on MDA-MB-231 it was 18 to 25%.

Take `Cc1sc2ncnc(N3CCN(Cc4ccc5c(c4)C(=O)N(N4CCC(=O)NC4=O)C5=O)CC3)c2c1C` [GT-08094, 5-((4-(5,6-dimethylthieno[2,3-d]pyrimidin-4-yl)piperazin-1-yl)methyl)-2-(2,4-dioxotetrahydropyrimidin-1(2H)-yl)isoindoline-1,3-dione]: the “substrate protein remaining % WEE1” value at WEE1 is “A (0% ≤ substrate protein remaining % ≤ 80%)”. For the same compound, the “substrate protein remaining % IKZF1” value at IKZF1 is recorded as “B (80%< substrate protein remaining %≤ 100%)”. For the same compound, the “substrate protein remaining % IKZF2” value on IKZF2 is given as “B (80%< substrate protein remaining %≤ 100%)”. For the same compound, the “substrate protein remaining % IKZF3” value at IKZF3 was “B (80%< substrate protein remaining %≤ 100%)”. The “substrate protein remaining % CK1α” value on CK1α is “A (0% ≤ substrate protein remaining % ≤ 80%)”. In addition, the “substrate protein remaining % GSPT1” value at GSPT1 was “A (0% ≤ substrate protein remaining % ≤ 80%)”. In addition, the inhibition at 0.01 µM with H292 fell in the range of 20 to 40%; in the assay on H2228, 30 to 40%; with MDA-MB-231, 25 to 40%. The inhibition at 0.5 µM lay within 20 to 40% in the assay on H292, 25 to 30% with H2228 and 25 to 40% with MDA-MB-231.

Regarding `O=C1CCN(N2C(=O)c3ccc(CN4CCN(c5ncnc6sc(-c7ccccc7)cc56)CC4)cc3C2=O)C(=O)N1` [GT-08097, 2-(2,4-dioxotetrahydropyrimidin-1(2H)-yl)-5-((4-(6-phenylthieno[2,3-d]pyrimidin-4-yl)piperazin-1-yl)methyl)isoindoline-1,3-dione], at WEE1, the “substrate protein remaining % WEE1” value is listed as “A (0% ≤ substrate protein remaining % ≤ 80%)”. The “substrate protein remaining % IKZF1” value on IKZF1 is “B (80%< substrate protein remaining %≤ 100%)”. Moreover, the “substrate protein remaining % IKZF2” value at IKZF2 is “B (80%< substrate protein remaining %≤ 100%)”. In addition, the “substrate protein remaining % IKZF3” value at IKZF3 is listed as “B (80%< substrate protein remaining %≤ 100%)”. In addition, the “substrate protein remaining % CK1α” value on CK1α is “A (0% ≤ substrate protein remaining % ≤ 80%)”. Moreover, on GSPT1, the “substrate protein remaining % GSPT1” value is given as “A (0% ≤ substrate protein remaining % ≤ 80%)”. For the same compound, the figures for the inhibition at 0.01 µM with H292, with H2228 and in the assay with MDA-MB-231 were 5 to 10%, 15 to 20% and 10 to 15%, respectively. The inhibition at 0.5 µM lay in the range of 10 to 15% in the assay on H292, 30 to 40% in the assay on H2228 and 18 to 25% in the assay on MDA-MB-231.

Take `Cc1nc(C2CCN(Cc3ccc4c(c3)C(=O)N(N3CCC(=O)NC3=O)C4=O)CC2)c2c3c(sc2n1)CCCC3` [GT-08111, 2-(2,4-dioxotetrahydropyrimidin-1(2H)-yl)-5-((4-(2-methyl-5,6,7,8-tetrahydrobenzo[4,5]thieno[2,3-d]pyrimidin-4-yl)piperidin-1-yl)methyl)isoindoline-1,3-dione]: the “substrate protein remaining % WEE1” value on WEE1 is “B (80%< substrate protein remaining %≤ 100%)”. Besides, the “substrate protein remaining % IKZF1” value at IKZF1 is “B (80%< substrate protein remaining %≤ 100%)”. In addition, the “substrate protein remaining % IKZF2” value on IKZF2 was “B (80%< substrate protein remaining %≤ 100%)”. Moreover, the “substrate protein remaining % IKZF3” value at IKZF3 is “B (80%< substrate protein remaining %≤ 100%)”. The “substrate protein remaining % CK1α” value on CK1α is “A (0% ≤ substrate protein remaining % ≤ 80%)”. In addition, the “substrate protein remaining % GSPT1” value on GSPT1 is recorded as “A (0% ≤ substrate protein remaining % ≤ 80%)”. Moreover, the figures for the inhibition at 0.01 µM in the assay with H292, with H2228 and with MDA-MB-231 were 20 to 40%, 20 to 25% and 25 to 40%, respectively. Moreover, the inhibition at 0.5 µM in the assay on H292 lay in the range of 20 to 40%; in the assay on H2228, 25 to 30%; in the assay on MDA-MB-231, 25 to 40%.

Consider `O=C1CCN(N2Cc3cc(CN4CCC(c5ncnc6sc7c(c56)CCCC7)CC4)ccc3C2=O)C(=O)N1` [GT-08112, 1-(1-oxo-5-((4-(5,6,7,8-tetrahydrobenzo[4,5]thieno[2,3-d]pyrimidin-4-yl)piperidin-1-yl)methyl)isoindolin-2-yl)dihydropyrimidine-2,4(1H,3H)-dione], for which, on WEE1, the “substrate protein remaining % WEE1” value is on record as “B (80%< substrate protein remaining %≤ 100%)”. The “substrate protein remaining % IKZF1” value on IKZF1 was “B (80%< substrate protein remaining %≤ 100%)”. Further, the “substrate protein remaining % IKZF2” value on IKZF2 was “B (80%< substrate protein remaining %≤ 100%)”. Moreover, at IKZF3, the “substrate protein remaining % IKZF3” value is reported as “B (80%< substrate protein remaining %≤ 100%)”. The “substrate protein remaining % CK1α” value on CK1α is recorded as “B (80%< substrate protein remaining %≤ 100%)”. The “substrate protein remaining % GSPT1” value on GSPT1 is recorded as “A (0% ≤ substrate protein remaining % ≤ 80%)”. For the same compound, the inhibition at 0.01 µM lay in the range of 15 to 20% in the assay with H292, 15 to 20% in the assay with H2228 and 15 to 18% in the assay on MDA-MB-231. The inhibition at 0.5 µM with H292 lay within 20 to 40%; with H2228 it was 25 to 30%; with MDA-MB-231, 25 to 40%.

`O=C1CCN(N2Cc3cc(CN4CCC(c5cccc(F)c5F)CC4)ccc3C2=O)C(=O)N1` [GT-08194, 1-(5-((4-(2,3-difluorophenyl)piperidin-1-yl)methyl)-1-oxoisoindolin-2-yl)dihydropyrimidine-2,4(1H,3H)-dione]: the “substrate protein remaining % WEE1” value on WEE1 is reported as “B (80%< substrate protein remaining %≤ 100%)”. Further, the “substrate protein remaining % IKZF1” value on IKZF1 is listed as “A (0% ≤ substrate protein remaining % ≤ 80%)”. Also, on IKZF2, the “substrate protein remaining % IKZF2” value is “B (80%< substrate protein remaining %≤ 100%)”. Also, the “substrate protein remaining % IKZF3” value at IKZF3 was “B (80%< substrate protein remaining %≤ 100%)”. In addition, on CK1α, the “substrate protein remaining % CK1α” value is “B (80%< substrate protein remaining %≤ 100%)”. Further, the “substrate protein remaining % GSPT1” value at GSPT1 is on record as “A (0% ≤ substrate protein remaining % ≤ 80%)”. Moreover, the inhibition at 0.01 µM in the assay with H2228 lay within 20 to 25%; in the assay on MV-4-11 (read-out: Inhibition Rate at 10 nM (%)), 18 to 25%; in the assay on MDA-MB-231, 18 to 25%. Further, the results for the inhibition at 0.5 µM in the assay on H2228, in the assay on MV-4-11 (read-out: Inhibition Rate at 500 nM (%)) and in the assay with MDA-MB-231 were 20 to 25%, 60 to 80% and 25 to 40%, respectively.
